Laboratory results from patent publication US10105326B2, “Pharmaceutical solution comprising dopamine for use in treating parkinson's disease” (CENTRE HOSPITALIER REGIONAL ET UNIVERSITAIRE DE LILLE (CHRU), priority 2014, dated 2018).

Legend:
Format in all cases: in vivo
TH-ir neurons in SNpc = assay: TH-ir neurons counting in SNpc of MPTP mice
Experimental: (§1) Five-month-old male C57B1/6J mice (Elevage Janvier, Le Genest St Isle, France) weighing 28-30 g were used. The mice received four intraperitoneal injections (with 2 h intervals) of saline solution containing 0 (“Saline mice”) or 20 mg/kg of MPTP (“MPTP mice”) (Sigma Aldrich, St Louis, Mo. USA). Saline or MPTP were administrated at day 0 (D0), the central continuous dopamine infusion or peripheral L-dopa treatment were delivered from 7th to the 14th day (D7 to D14), and then spontaneous locomotor measurement and sacrifice were performed at D14.
The brains were removed and, after a post-fixation process, were cryoprotected and frozen. […]
The number of TH-ir neurons (“Tyrosine Hydroxylase-Immunoreactive») in the SNpc was assessed by counting TH-ir neurons of the left and right hemisphere in every 4th section of the SNpc of all experimental groups. […] For the unbiased quantification, a line was drawn around the SNpc of each section. […] Cells were counted with a 40× using a Nikon Eclipse E600 microscope (Tokyo, Japan). […] As no difference between left and right SNps was found, TH-ir counted neurons of both sides were pooled and for each animal, a sum of neurons counted in each section was calculated. […]

MPTP mice = assay: Spontaneous motor activity (actimetry) in MPTP mice; conditions: for spontaneous locomotor activity: 7 days
Experimental: as §1
After 7 days of treatment (i.p. L-dopa or i.c.v dopamine), spontaneous motor activity was recorded in an actimeter (Panlab, Barcelona, Spain) during 10 minutes. The apparatus was a 45×45×35 cm transparent Plexiglas enclosure equipped with two frames of infrared beams. This apparatus allowed horizontal motor activity (distance traveled, speed, movement type) and rearing behavior to be measured based on infrared beams obstructions. Chosen parameters were collected by Actitrack software (Panlab, Barcelona, Spain).

striatum of MPTP mice = assay: Neurotransmitter content in striatum of MPTP mice (HPLC)
Experimental: as §1

[1] = tested on: TH-ir terminals in dorsal striatum; assay: TH-ir optical density in dorsal striatum of MPTP mice; conditions: MPTP administration
[2] = peripheral L-dopa 50 and 100 mg/day

abnormal behaviors (MPTP mice; high doses of L-Dopa) | SMILES | effect on TH-ir neurons in SNpc (TH-ir neurons in SNpc; L-dopa treatment, 7 days) | spontaneous locomotor activity (MPTP mice; peripheral L-dopa 50 mg/kg/day) | spontaneous locomotor activity (MPTP mice; peripheral L-dopa 25 and 100 mg/day) | dopaminergic neurotransmission in striatum (striatum of MPTP mice; peripheral L-dopa 25 mg/day) | serotonin and noradrenalin in both striatum (striatum of MPTP mice; peripheral L-dopa 25 mg/day) | dopamine and metabolites in both striatum (striatum of MPTP mice; [2]) | serotonin and noradrenalin content (striatum of MPTP mice; [2]) | loss of TH-expressing neurons in the SNpc compared to saline-injected mice (TH-ir neurons in SNpc; MPTP administration) | loss of TH-expressing neurons in the striatum compared to saline-injected mice [1] | reduction in DOPAC content in each striatum (striatum of MPTP mice; MPTP intoxication) | reduction in HIA content in each striatum (striatum of MPTP mice; MPTP intoxication) | reduction in HVA content in each striatum (striatum of MPTP mice; MPTP intoxication) | reduction in noradrenalin content in each striatum (striatum of MPTP mice; MPTP intoxication) | reduction in serotonin content in each striatum (striatum of MPTP mice; MPTP intoxication) | reduction in dopamine content in each striatum (striatum of MPTP mice; MPTP intoxication, 4 x 20 mg/kg i.p.)
abnormal behaviors such as dyskinesia | N[C@@H](Cc1ccc(O)c(O)c1)C(=O)O [L-dopa, L-3,4-dihydroxyphenylalanine] | no significant effect | restored | no effect | no effect on dopaminergic neurotransmission | increase in serotonin and noradrenalin in both striatum | significant increase in dopamine and metabolites in both striatum | no supplemental effect on serotonin and noradrenalin content |  |  |  |  |  |  |  | 
 | CN1CC=C(c2ccccc2)CC1 [MPTP, 1-methyl-4-phenyl-1,2,3,6-tetrahydropyridine] |  |  |  |  |  |  |  | 44.3% | 38.2% | 70-80% | 20-50% | 60-70% | 35-50% | 40-40% | 85-90%
